Laboratory results reported in article PMC8170132, “Kinetics of Abacavir-Induced Remodelling of the Major Histocompatibility Complex Class I Peptide Repertoire” (Frontiers in Immunology, 2021).

What was measured:
HLA-B*57:01 [1] = target: T1, HLA-B*57:01 (Homo sapiens, UniProt P01889, D201E/D98Y/E176V/E187L/E204Q/E69M/E70A/G107R/I90N/K202T/L105A/L119I/N104I/N87E/Q89R/Q94S/R106L/R155S/R180L/R86G/S101N/S121V/S35A/S48A/T118I/V36M/Y140S/Y91M); test: LC-MRM-MS quantitation of HLA ligands and co-purified abacavir from abacavir treated C1R.B*57:01 cells; format: cell-based; details: for Abacavir dependence: LC-MRM-MS detection, classification of the peptide based on abacavir dependency; for Linear regression slope: linear regression of LC-MRM-MS peptide abundance over abacavir treatment time; for Category of abacavir impact on peptide abundance in the immunopeptidome: C1R.B*57:01, 35 µM abacavir 0-16 h or constant, linear regression of normalised abundance, three replicates
HLA-B*57:01 [2] = target: T1, HLA-B*57:01; set-up: method as in Illing et al., Nature 2012; details: ref Illing et al., Nature 2012, cited from earlier work; for HLA-B*57:01 previous observation by LC-MS/MS, Abacavir treated: abacavir treated cells; for HLA-B*57:01 previous observation by LC-MS/MS, Untreated: untreated cells

Sequence	Abacavir dependence (HLA-B*57:01 [1])	Linear regression slope (HLA-B*57:01 [1])	HLA-B*57:01 previous observation by LC-MS/MS, Abacavir treated (HLA-B*57:01 [2])	HLA-B*57:01 previous observation by LC-MS/MS, Untreated (HLA-B*57:01 [2])	Category of abacavir impact on peptide abundance in the immunopeptidome (HLA-B*57:01 [1])
ASAGNLKPVW	Minimal	0.0136	+ (+ (< 5% FDR))	+ (+ (< 5% FDR))	–
ASAIIIQRW	Minimal	0.0134	+ (+ (< 5% FDR))	+ (+ (< 5% FDR))	–
ASSSQIIHI	Dependent	0.0446	+ (+ (< 5% FDR))	–	–
ATFKGIVRAI [non-labelled HLA-B*57:01 ligand]	Dependent	0.0504	+ (+ (< 5% FDR))	–	Dependent
FSHRIYVAY	Minimal	0.0098	+ (+ (< 5% FDR))	+ (+ (< 5% FDR))	–
FVKKLEHSW	Minimal	0.0023	+ (+ (< 5% FDR))	+ (+ (< 5% FDR))	–
GSFGKVFLV	Dependent	0.0515	+ (+ (< 5% FDR))	–	–
GTYQDVGSLNI	Dependent	0.0429	+ (+ (< 5% FDR))	–	–
HSMSDPGVSY	Minimal	0.0044	+ (+ (< 5% FDR))	+ (+ (< 5% FDR))	–
HSTDRVVLI	Dependent	0.0350	# (# (> 5% FDR))	–	–
HTIQIRQDW [HLA-B*57:01 ligand]	Facilitated	0.0256	+ (+ (< 5% FDR))	+ (+ (< 5% FDR))	Facilitated
IFDSKVTEI	–	-0.0096	+ (+ (< 5% FDR))	+ (+ (< 5% FDR))	–
ILDPHVVLL	–	0.0062	+ (+ (< 5% FDR))	+ (+ (< 5% FDR))	–
ISIHVGQAGVQI	Dependent	0.0259	+ (+ (< 5% FDR))	–	–
ITAGAHRLW	Minimal	0.0136	+ (+ (< 5% FDR))	+ (+ (< 5% FDR))	–
ITKTVVENI [HLA-B*57:01 ligand]	Minimal	-0.0036	+ (+ (< 5% FDR))	+ (+ (< 5% FDR))	Minimal
ITNADSATRLL	Inhibited	-0.0254	–	+ (+ (< 5% FDR))	–
IVFPGSTGHI	Dependent	0.0377	+ (+ (< 5% FDR))	–	–
IYDKFIAQL	–	-0.0106	+ (+ (< 5% FDR))	+ (+ (< 5% FDR))	–
KAIDYIRFL	Inhibited	-0.0293	+ (+ (< 5% FDR))	# (# (> 5% FDR))	–
KIADFGWSV	Dependent	0.0283	+ (+ (< 5% FDR))	–	–

Sequence	Abacavir dependence (HLA-B*57:01 [1])	Linear regression slope (HLA-B*57:01 [1])	HLA-B*57:01 previous observation by LC-MS/MS, Abacavir treated (HLA-B*57:01 [2])	HLA-B*57:01 previous observation by LC-MS/MS, Untreated (HLA-B*57:01 [2])	Category of abacavir impact on peptide abundance in the immunopeptidome (HLA-B*57:01 [1])
KSIARVLTV	Dependent	0.0347	# (# (> 5% FDR))	–	–
KSIFVFTHV	Dependent	0.0498	+ (+ (< 5% FDR))	–	–
KSYELPDGQVI	Facilitated	0.0297	+ (+ (< 5% FDR))	# (# (> 5% FDR))	–
KTAGYPNVNI	Dependent	0.0509	+ (+ (< 5% FDR))	# (# (> 5% FDR))	–
KTFIGTVRV	Dependent	0.0503	+ (+ (< 5% FDR))	–	–
KTFKDVGNLL [non-labelled HLA-B*57:01 ligand]	Facilitated	0.0314	+ (+ (< 5% FDR))	+ (+ (< 5% FDR))	Facilitated
KTFTTQETI [HLA-B*57:01 ligand]	–	–	+ (+ (< 5% FDR))	+ (+ (< 5% FDR))	abacavir facilitated (abacavir facilitated (slope > 0.02, abundance > 0 at t = 0 in at least two of three replicates))
KTIETSPSL [HLA-B*57:01 ligand]	–	–	# (# (> 5% FDR))	–	abacavir facilitated (abacavir facilitated (slope > 0.02, abundance > 0 at t = 0 in at least two of three replicates))
KTIKLWNTL [HLA-B*57:01 ligand derived from RACK1]	Facilitated	0.0224	+ (+ (< 5% FDR))	+ (+ (< 5% FDR))	abacavir facilitated (abacavir facilitated (slope > 0.02, abundance > 0 at t = 0 in at least two of three replicates))
KTLEGEFSV	Dependent	0.0463	+ (+ (< 5% FDR))	–	–
KVFKLQTSL [non-labelled HLA-B*57:01 ligand]	Dependent	0.0380	# (# (> 5% FDR))	–	Dependent
KVVDVVRNL [HLA-B*57:01 ligand derived from MX1]	Inhibited	-0.0432	# (# (> 5% FDR))	+ (+ (< 5% FDR))	abacavir inhibited (abacavir inhibited (slope < −0.02))
LSKPNPPSL [HLA-B*57:01 ligand]	Minimal	-0.0172	+ (+ (< 5% FDR))	+ (+ (< 5% FDR))	Minimal
LSQEQLRQW	Minimal	0.0083	+ (+ (< 5% FDR))	+ (+ (< 5% FDR))	–
LSSDINVRSW	Minimal	-0.0197	+ (+ (< 5% FDR))	+ (+ (< 5% FDR))	–
LSSPVTKSF	Minimal	0.0147	+ (+ (< 5% FDR))	+ (+ (< 5% FDR))	minimally impacted by abacavir
LTSELITHI [HLA-B*57:01 ligand derived from MX1]	Dependent	0.0325	+ (+ (< 5% FDR))	–	abacavir dependent (abacavir dependent (slope > 0.02, abundance = 0 at t = 0 in at least two of three replicates))
LTTKLTNTNI [non-labelled HLA-B*57:01 ligand]	Dependent	0.0544	+ (+ (< 5% FDR))	–	Dependent
MTAGVDGHSW	Minimal	-0.0056	+ (+ (< 5% FDR))	+ (+ (< 5% FDR))	–
NTVELRVKI [non-labelled HLA-B*57:01 ligand]	Dependent	0.0281	+ (+ (< 5% FDR))	–	Dependent
RTLLEDGTFKV	Dependent	0.0443	+ (+ (< 5% FDR))	–	–
